Where two headings read alike, the source gives them in different places.
Assays:
[1] = biological target: T1, human equilibrative nucleoside transporter 1 (hENT1) (Homo sapiens, UniProt Q99808); experiment: inhibition of initial rate of 3H-uridine; format: cell-based
T1 sequence (Q99808 2-456): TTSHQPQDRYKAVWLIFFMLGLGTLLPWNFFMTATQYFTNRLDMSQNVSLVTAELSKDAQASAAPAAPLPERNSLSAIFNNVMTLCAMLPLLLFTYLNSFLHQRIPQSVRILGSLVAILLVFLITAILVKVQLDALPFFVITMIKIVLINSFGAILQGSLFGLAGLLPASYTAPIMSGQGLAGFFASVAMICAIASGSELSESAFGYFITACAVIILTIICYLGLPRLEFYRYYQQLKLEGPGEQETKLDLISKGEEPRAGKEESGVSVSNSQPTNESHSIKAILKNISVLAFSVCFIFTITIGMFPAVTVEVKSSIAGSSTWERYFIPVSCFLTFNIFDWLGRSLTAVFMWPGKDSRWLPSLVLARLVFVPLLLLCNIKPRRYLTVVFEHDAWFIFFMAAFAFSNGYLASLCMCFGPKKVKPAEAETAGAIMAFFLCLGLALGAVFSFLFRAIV

[2] = biological target: T1, human equilibrative nucleoside transporter 1 (hENT1); experiment: inhibition of initial rate of 3H-uridine; format: cell-based; remark: listed apart in the source

| IC50 [1] | IC50 [2] | Compound |
| --- | --- | --- |
| > 1000 nM |  | O=[N+]([O-])c1ccc(CNc2ncnc3c2ccn3[C@@H]2O[C@H](CO)[C@@H](O)[C@H]2O)cc1 [2b, 4-(4-Nitrobenzylamino)-7-(β-D-ribofuranosyl)pyrrolo[2,3-d]pyrimidine] |
|  | 123 ± 31 nM | NC(=O)c1cn([C@@H]2O[C@H](CO)[C@@H](O)[C@H]2O)c2ncnc(NCc3ccc([N+](=O)[O-])cc3)c12 [2c, 5-Carboxamido-4-(4-nitrobenzylamino)-7-(β-D-ribofuranosyl)pyrrolo[2,3-d]pyrimidine] |
